Source: US4513001A, “β-Adrenergic 1-[1-benzimidazolyl]-N-[2-(4-hydroxy-3-methoxy-phenyl)-2-hydroxy-ethyl]- 3-amino butane and salts and hydrates thereof” (priority 1982, dated 1985)
pEC50: −log10 of the molar value. Like-named read-outs stand apart in the source and are kept apart here.

Experiments:
[1] = system: histamine bronchospasm; test: Bronchodilator activity in vivo, anesthetized dog, intraduodenal (intratracheal pressure, histamine bronchospasm)
Method: 1.2.2. In the anesthesized dog (recording of the intratracheal pressure)
A bronchospasm was caused by intravenous injection and histamine. The bronchodilator activity was shown by partial or total inhibition of this spasm.
The products studied were administered intraduodenally and the histamine injected then at various times to follow the effect of the treatment.
The results borne in the table below are the averages of the values obtained in 3 animals for each product.

[2] = system: guinea pig trachea; test: β-stimulant specificity: guinea pig trachea before and after propranolol; settings: for pEC50: Cavia porcellus, 6 preparations
Excerpt: respiratory (guinea pig trachea, in vitro)
cardiovascular (heart rate of the dog, in vivo) by the antagonistic effect of a β-blocking product.

[3] = system: histamine bronchospasm; test: Bronchodilator activity in vivo, anesthetized guinea pig, intravenous (inhibition of histamine bronchospasm, KONZETT); settings: i.v.
Method: (§1) 1.2.1 In the anesthesized guinea pig (method of KONZETT. Arch. Exp. Pathol. Pharmakol. 1940 195 71-74)
(§2) A bronchospasm was caused by intravenous histamine injection. The bronchodilator activity was shown by partial or total inhibition of this spasm.
The product studied was administered intravenously or intraduodenaly and histamine injected then at different times to follow the delay in appearance and the duration of the inhibiting effect of the treatment. […]

[4] = system: heart rate and mean aortic pressure; test: Heart rate and mean aortic pressure of the anesthetised dog, intraduodenal; assay type: in vivo; settings: intraduodenal
Method: 3.1.1. Activity on the heart rate and on the mean aortic pressure of the anesthetisied dog
The activity of the compound A and of Salbutamol was studied on 2 batches of 3 dogs per product: one in spontaneous respiration, the other in artificial respiration; the two substances were administered intraduodenally at 3 doses: 0.008-0.025 and 0.08 mg/kg.

[5] = system: isolated trachea preparation of the guinea pig; test: Relaxant activity on isolated tracheal muscle in vitro; settings: 6 preparations
Method: This activity was studied on an isolated trachea preparation of the guinea pig (chain of tracheal rings, according to CASTILLO and BEER. Journ. Pharmacol. Exp. Ther. 1947 90 104-109), kept alive in a KREBS solution. The effect of cumulative doses on the pressure of the preparation was recorded.
The activity of the substance was expressed by the value of the molar CD50 (decontracting concentration 50=concentration giving 50% of maximum relaxation), of which the negative log. is the value pD2, and by the intrinsic activity corresponding to maximum effect.
These values were determined in parallel for the compound A and Salbutamol, on 6 preparations for each.

[6] = system: histamine bronchospasm; test: Bronchodilator activity in vivo, anesthetized guinea pig, intraduodenal (inhibition of histamine bronchospasm, KONZETT)
Method: as §1, §2
The product studied was administered intravenously or intraduodenaly and histamine injected then at different times to follow the delay in appearance and the duration of the inhibiting effect of the treatment.
The results below are the averages of the values obtained in 10 animals.

[7] = system: rat uterus preparation; test: Uterus relaxing activity in vitro; settings: Rattus norvegicus, 7 preparations, read-out: CE50 (effective concentration 50, inhibiting by 50% the control contraction)
Excerpt: This activity was investigated on a rat uterus preparation, put into estrus by cutaneous injection of oestradiol benzoate. The uterine horns were kept alive in a RINGER-LOCKE solution, modified by GADDUM and VOGT.
Their activity is expressed by the value of the molar CE50 (effective concentration 50, inhibiting by 50% the control contraction induced by the contracting agent).
Each CE50 indicated below was obtained from the results of 7 preparations.

[8] = system: isolated right atrium preparation of the guinea pig; test: Activity on the heart rate in vitro, isolated right atrium
Method: This action was studied on an isolated right atrium preparation of the guinea pig kept alive in a RINGER solution. The effect of cumulative doses on the heart rate was recorded. The results below are the averages of 6 preparations of the compound A, of 4 for Salbutamol

SMILES: CC(C)(C)NCC(O)c1ccc(O)c(CO)c1 (stereo not drawn) [Salbutamol, reference compound]
- % inhibition in time ([1]; 0.025 mg base/kg, 5 min): 21%
- % inhibition in time ([1]; 0.025 mg base/kg, 20 min): 65%
- % inhibition in time ([1]; 0.025 mg base/kg, 35 min): 63%
- % inhibition in time ([1]; 0.025 mg base/kg, 60 min): 61%
- % inhibition in time ([1]; 0.025 mg base/kg, 90 min): 65%
- % inhibition in time ([1]; 0.08 mg base/kg, 5 min): 8%
- % inhibition in time ([1]; 0.08 mg base/kg, 20 min): 50%
- % inhibition in time ([1]; 0.08 mg base/kg, 35 min): 56%
- % inhibition in time ([1]; 0.08 mg base/kg, 60 min): 55%
- % inhibition in time ([1]; 0.08 mg base/kg, 90 min): 52%
- pEC50 ([2]; read-out: CD50 before propranolol): 7.96
- pEC50 ([2]; propranolol 1.7×10^-8 mol, read-out: CD50 after propranolol): 7.42
- Ratio of CD50 ([2]; after / before propranolol): 3.5
- % inhibition in time ([3]; 0.08 μg base/kg, 1 min): 8%
- % inhibition in time ([3]; 0.08 μg base/kg, 5 min): 2%
- % inhibition in time ([3]; 0.08 μg base/kg, 10 min): 0%
- % inhibition in time ([3]; 0.08 μg base/kg, 15 min): 1%
- % inhibition in time ([3]; 0.25 μg base/kg, 1 min): 25%
- % inhibition in time ([3]; 0.25 μg base/kg, 5 min): 6%
- % inhibition in time ([3]; 0.25 μg base/kg, 10 min): 2%
- % inhibition in time ([3]; 0.25 μg base/kg, 15 min): 2%
- % inhibition in time ([3]; 0.8 μg base/kg, 1 min): 54%
- % inhibition in time ([3]; 0.8 μg base/kg, 5 min): 8%
- % inhibition in time ([3]; 0.8 μg base/kg, 10 min): 7%
- % inhibition in time ([3]; 0.8 μg base/kg, 15 min): 2%
- % inhibition in time ([3]; 2.5 μg base/kg, 1 min): 75%
- % inhibition in time ([3]; 2.5 μg base/kg, 5 min): 13%
- % inhibition in time ([3]; 2.5 μg base/kg, 10 min): 8%
- % inhibition in time ([3]; 2.5 μg base/kg, 15 min): 4%
- % inhibition in time ([3]; 8 μg base/kg, 1 min): 91%
- % inhibition in time ([3]; 8 μg base/kg, 5 min): 35%
- % inhibition in time ([3]; 8 μg base/kg, 10 min): 13%
- % inhibition in time ([3]; 8 μg base/kg, 15 min): 8%
- % inhibition in time ([3]; 25 μg base/kg, 1 min): 97%
- % inhibition in time ([3]; 25 μg base/kg, 5 min): 78%
- % inhibition in time ([3]; 25 μg base/kg, 10 min): 34%
- % inhibition in time ([3]; 25 μg base/kg, 15 min): 22%
- % inhibition in time ([3]; 83 μg base/kg, 1 min): 94%
- % inhibition in time ([3]; 83 μg base/kg, 5 min): 81%
- % inhibition in time ([3]; 83 μg base/kg, 10 min): 60%
- % inhibition in time ([3]; 83 μg base/kg, 15 min): 55%
- % inhibition in time ([3]; 83 μg base/kg, 30 min): 50%
- % inhibition in time ([3]; 83 μg base/kg, 45 min (n = 9)): 30%
- % inhibition in time ([3]; 83 μg base/kg, 60 min (n = 9)): 17%
- Heart rate, maximum cumulative effect ([4]; artificial respiration, 15 min after 0.025 mg/kg): +41 cpm
- Average aortic pressure, maximum cumulative effect ([4]; artificial respiration, 90 min after 0.08 mg/kg): -36 mmHg
- Heart rate, maximum cumulative effect ([4]; spontaneous respiration, 20 min after 0.08 mg/kg): +26 cpm
- Average aortic pressure, maximum cumulative effect ([4]; spontaneous respiration, 1 h after 0.08 mg/kg): -40 mmHg
- Maximum response (decontraction) [5]: 358 mg
- Emax ([5]; Cavia porcellus, Salbutamol 1.00, read-out: Intrinsic activity): 100%
- pEC50 ([5]; Cavia porcellus, read-out: CD50 (decontracting concentration 50, concentration giving 50% of maximum relaxation)): 7.82
- EC50 ([5]; Cavia porcellus, negative log of molar CD50, read-out: pD2 (converted)): 0.0151 µM
- Dose to obtain a high activity [6]: 8 mg/kg
- % inhibition in time ([6]; 0.8 mg base/kg, 1 min): 4%
- % inhibition in time ([6]; 0.8 mg base/kg, 5 min): 18%
- % inhibition in time ([6]; 0.8 mg base/kg, 15 min): 16%
- % inhibition in time ([6]; 0.8 mg base/kg, 30 min): 16%
- % inhibition in time ([6]; 0.8 mg base/kg, 45 min): 13%
- % inhibition in time ([6]; 0.8 mg base/kg, 60 min): 13%
- % inhibition in time ([6]; 2.5 mg base/kg, 1 min): 2%
- % inhibition in time ([6]; 2.5 mg base/kg, 5 min): 14%
- % inhibition in time ([6]; 2.5 mg base/kg, 15 min): 32%
- % inhibition in time ([6]; 2.5 mg base/kg, 30 min): 34%
- % inhibition in time ([6]; 2.5 mg base/kg, 45 min): 29%
- % inhibition in time ([6]; 2.5 mg base/kg, 60 min): 23%
- % inhibition in time ([6]; 2.5 mg base/kg, 90 min): 15%
- % inhibition in time ([6]; 2.5 mg base/kg, 120 min): 10%
- % inhibition in time ([6]; 8 mg base/kg, 1 min): 31%
- % inhibition in time ([6]; 8 mg base/kg, 5 min): 64%
- % inhibition in time ([6]; 8 mg base/kg, 15 min): 76%
- % inhibition in time ([6]; 8 mg base/kg, 30 min): 72%
- % inhibition in time ([6]; 8 mg base/kg, 45 min): 65%
- % inhibition in time ([6]; 8 mg base/kg, 60 min): 58%
- % inhibition in time ([6]; 8 mg base/kg, 90 min): 52%
- % inhibition in time ([6]; 8 mg base/kg, 120 min (n = 9 compound A, n = 8 Salbutamol)): 37%
- pEC50 ([7]; contracting agent acetylcholine): 8.30
- pEC50 ([7]; contracting agent serotonine): 8.08
- Heart rate, increase ([8]; 1 × 10^-4 mol): +110 beats per min.
- Heart rate, maximum ([8]; 1 × 10^-4 mol, basal 202 (Salbutamol)): 312 beats per min.
- Heart rate, increase ([8]; 1 × 10^-5 mol (maxi for Salbutamol)): +115 beats per min.
- Heart rate, maximum ([8]; 1 × 10^-5 mol, basal 209 (Compound A), 202 (Salbutamol)): 317 beats per min.
- Heart rate, increase ([8]; 1 × 10^-6 mol (maxi for Compound A)): +106 beats per min.
- Heart rate, maximum ([8]; 1 × 10^-6 mol, basal 209 (Compound A), 202 (Salbutamol)): 308 beats per min.
- Heart rate, increase ([8]; 1 × 10^-7 mol): +90 beats per min.
- Heart rate, maximum ([8]; 1 × 10^-7 mol, basal 209 (Compound A), 202 (Salbutamol)): 292 beats per min.
- Heart rate, increase ([8]; 1 × 10^-8 mol): +49 beats per min.
- Heart rate, maximum ([8]; 1 × 10^-8 mol, basal 202 (Salbutamol)): 251 beats per min.
